Tests used:
[1] = biological target: T1, human H3 receptor (Homo sapiens, UniProt Q9Y5N1); test: In vitro H3 functional assay (cAMP response element driven luciferase reporter); format: cell-based; details: CHO(dhfr+)-cre-luc cells expressing human H3 receptor; RαMH 10 nM, forskolin 1 μM; read-out: hH3 functional IC50
T1 construct: expressed in transfected cells
Protocol: The functional activity of compounds at the H3 receptor was determined by measuring changes in the level of intracellular cAMP using a cAMP response element driven luciferase reporter assay. The changes in luciferase expression were monitored by a luminescence plate reader, Analyst HT (MDS Analytical). Increases in intracellular cAMP were readily detected upon activation of protein kinase A by forskolin (Sigma) and suppression of this response observed with the application of the H3 receptor agonist RαMH (Sigma).
CHO(dhfr^+)-cre-luc cells stably expressing human H3 receptor were routinely grown as monolayers in Minimal Essential Medium α (MEMα) (Invitrogen) supplemented with 10% dialysed FBS (Hyclone), in 5% CO2 at 37° C. 48 hours prior to assay, cells were seeded in clear-base white walled 384-well plates (Corning) at a density of 5000 cells/well. On the day of assay, growth media was removed and replaced with […] of assay buffer (MEMα, 5 mg/ml fatty acid free BSA (Sigma)) per well. Cells were then incubated for 30 minutes at 37° C., 5% CO2. Compound was serially diluted in DMSO before being diluted 1:10 with assay buffer. 2.5 of compound diluted in assay buffer was added and cells incubated for 5 minutes at 37° C., 5% CO2. 2.5 μl of each reagent was then added in the following order: RαMH (10 nM), isobutylmethylxanthine (1-methyl-3-(2-methylpropyl)-7H-purine-2,6-dione; IBMX) (500 μM) (Sigma) and forskolin (1 μM). Cells were then incubated for 90 minutes at 37° C., 5% CO2, followed by 30 minutes at room temperature. At the end of incubation 25 μl of Steadylite reagent (Perkin Elmer) was added, plates were sealed and placed on a shaker for 5 minutes. The level of light output to determine the level of luciferase expression was then measured.
IC50 values for compounds were determined from ten point half log scale dose-response studies and represent the concentration of compound required to […] 50% inhibition of forskolin stimulated cells in the presence of RαMH alone. Curves were generated using the average of duplicate wells for each data point and analyzed using nonlinear regression of four parameter dose response.

[2] = biological target: T1, human H3 receptor; test: In vitro H3 binding assay (3H-N-α-methyl-histamine competition binding); details: membranes of CHO-K1 cells expressing human H3 receptor; 2 nM 3H-NαMH; read-out: hH3 binding IC50
Procedure, shortened: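 Membranes from CHO-K1 cells stably expressing human H3 (5 μg/well) incubated 1 h at room temperature with compound and 2 nM ³H-NαMH in 50 mM Tris-HCl pH 7.4, 5 mM MgCl2; non-specific binding defined with 1 μM RαMH. Bound radioactivity measured by filtration and scintillation; IC50 from seven-point curves by variable-slope sigmoidal regression.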

T1 sequence (Q9Y5N1 whole entry): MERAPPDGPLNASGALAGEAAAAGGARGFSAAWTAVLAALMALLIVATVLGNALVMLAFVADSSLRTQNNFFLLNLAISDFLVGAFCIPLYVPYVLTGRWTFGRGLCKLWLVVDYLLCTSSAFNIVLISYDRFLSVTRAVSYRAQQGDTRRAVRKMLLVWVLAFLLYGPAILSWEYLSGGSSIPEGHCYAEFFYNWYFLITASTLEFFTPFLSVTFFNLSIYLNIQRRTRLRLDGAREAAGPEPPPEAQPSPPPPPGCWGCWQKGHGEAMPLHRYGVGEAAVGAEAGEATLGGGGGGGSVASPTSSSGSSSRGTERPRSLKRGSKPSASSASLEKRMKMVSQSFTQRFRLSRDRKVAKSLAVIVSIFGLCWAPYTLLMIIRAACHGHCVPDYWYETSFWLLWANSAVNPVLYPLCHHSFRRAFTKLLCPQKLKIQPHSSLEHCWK

IC50 [1] [nM] | IC50 [2] [nM] | SMILES
34 | 61 | O=C1CCCN1Cc1ccc2c(c1)CCN(C1CCC1)CC2 [Example 304, 1-((3-cyclobutyl-2,3,4,5-tetrahydro-1H-benzo[d]azepin-7-yl)methyl)pyrrolidin-2-one]
4 | 2 | O=C(Cc1ccc2c(c1)CCN(C1CCC1)CC2)Nc1cccnc1 [Example 224, 2-(3-cyclobutyl-2,3,4,5-tetrahydro-1H-benzo[d]azepin-7-yl)-N-(pyridin-3-yl)acetamide]
7 | 25 | CCC(=O)N1CCC(C)(C(O)Cc2ccc3c(c2)CCN(C2CCC2)CC3)CC1 (single isomer, unassigned) [Example 257, 1-{4-[2-(3-cyclobutyl-2,3,4,5-tetrahydro-1H-3-benzazepin-7-yl)-1-hydroxyethyl]-4-methylpiperidin-1-yl}propan-1-one]
7 | 7 | Cn1cccc1CNC(=O)c1ccc2c(c1)CCN(C1CCC1)CC2 [Example 111, 3-Cyclobutyl-N-((1-methyl-1H-pyrrol-2-yl)methyl)-2,3,4,5-tetrahydro-1H-benzo[d]azepine-7-carboxamide]
2 | 18 | CCCOc1ccc(C(=O)NCc2ccc3c(c2)CCN(C2CCC2)CC3)cn1 [Example 306, N-((3-cyclobutyl-2,3,4,5-tetrahydro-1H-benzo[d]azepin-7-yl)methyl)-6-propoxynicotinamide]
2 | 3 | O=C(NCc1ccncc1)c1ccc2c(c1)CCN(C1CCC1)CC2 [Example 40, 3-Cyclobutyl-N-(pyridin-4-ylmethyl)-2,3,4,5-tetrahydro-1H-benzo[d]azepine-7-carboxamide]
7 | 24 | OC(Cc1ccc2c(c1)CCN(C1CCC1)CC2)c1ccccn1 (stereo not shown) [Example 143, 2-(3-cyclobutyl-2,3,4,5-tetrahydro-1H-benzo[d]azepin-7-yl)-1-(pyridin-2-yl)ethanol]
9 | 6 | Cc1ncc(C(=O)NCc2ccc3c(c2)CCN(C2CCC2)CC3)cn1 [Example 211, N-((3-cyclobutyl-2,3,4,5-tetrahydro-1H-benzo[d]azepin-7-yl)methyl)-2-methylpyrimidine-5-carboxamide]
1 | 11 | O=C(NCC1CCOCC1)c1ccc2c(c1)CCN(C1CCC1)CC2 [Example 35, 3-Cyclobutyl-N-((tetrahydro-2H-pyran-4-yl)methyl)-2,3,4,5-tetrahydro-1H-benzo[d]azepine-7-carboxamide]
7 | 26 | O=C(NCc1ccc2c(c1)CCN(C1CCC1)CC2)N1CCCC1 [Example 194, N-((3-cyclobutyl-2,3,4,5-tetrahydro-1H-benzo[d]azepin-7-yl)methyl)pyrrolidine-1-carboxamide]
4 | 1 | Cn1nc(CNC(=O)c2ccc3c(c2)CCN(C2CCC2)CC3)cc1-c1ccccc1 [Example 108, 3-Cyclobutyl-N-((1-methyl-5-phenyl-1H-pyrazol-3-yl)methyl)-2,3,4,5-tetrahydro-1H-benzo[d]azepine-7-carboxamide]
5 | 10 | CC(=O)N1CCCC(CNC(=O)c2ccc3c(c2)CCN(C2CCC2)CC3)C1 (stereo not shown) [Example 164, N-((1-acetylpiperidin-3-yl)methyl)-3-cyclobutyl-2,3,4,5-tetrahydro-1H-benzo[d]azepine-7-carboxamide]
4 | 6 | C[C@@H]1CCCN1C(=O)NCc1ccc2c(c1)CCN(C1CCC1)CC2 [Example 265, (R)—N-((3-cyclobutyl-2,3,4,5-tetrahydro-1H-benzo[d]azepin-7-yl)methyl)-2-methylpyrrolidine-1-carboxamide]
6 | 10 | COc1ccc(CC(=O)Cc2ccc3c(c2)CCN(C2CCC2)CC3)cn1 [Example 244, 1-(3-cyclobutyl-2,3,4,5-tetrahydro-1H-benzo[d]azepin-7-yl)-3-(6-methoxypyridin-3-yl)propan-2-one]

Reference: patent US20110124626A1, “BENZAZEPINE DERIVATIVES AND THEIR USE AS HISTAMINE H3 ANTAGONISTS” (TAKEDA PHARMACEUTICAL COMPANY LIMITED, priority 2008, published 2011)
